This is an account of results in patent US11331299B2, “Medicinal use of serrulatane diterpenes” (The University of Sydney, priority 2016, dated 2022).

For series [1], the target named is receptors (Bioprint panel) (Homo sapiens, UniProt P10275). The experiment in a line: biochemical. Format: binding. The settings on record: 10 μM.
The target in series [2] is receptors (Bioprint panel) (Homo sapiens, UniProt P30518). Briefly: biochemical. The class given is binding. The settings on record: VASOPRESSIN V2 (h) (agonist radioligand); 10 μM; read-out: % Inhibition of Control Specific Binding.
Sequence of receptors (Bioprint panel) (Homo sapiens, UniProt P30518) (P30518 whole entry): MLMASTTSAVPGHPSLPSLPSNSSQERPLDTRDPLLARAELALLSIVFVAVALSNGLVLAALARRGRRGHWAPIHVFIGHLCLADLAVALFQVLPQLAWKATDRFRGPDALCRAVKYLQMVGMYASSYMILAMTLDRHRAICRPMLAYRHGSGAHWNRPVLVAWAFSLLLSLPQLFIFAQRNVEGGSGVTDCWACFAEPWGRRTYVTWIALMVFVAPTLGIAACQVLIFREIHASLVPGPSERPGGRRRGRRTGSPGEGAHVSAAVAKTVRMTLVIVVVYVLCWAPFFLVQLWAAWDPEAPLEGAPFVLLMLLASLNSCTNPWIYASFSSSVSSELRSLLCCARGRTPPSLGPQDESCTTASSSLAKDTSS
In series [3] the target is receptors (Bioprint panel) (Homo sapiens, UniProt P35372). Briefly: biochemical. Format: binding. The following applies: OPIOD & OPIOID-LIKE mu (MOP) (h) (agonist radioligand); 10 μM; read-out: % Inhibition of Control Specific Binding.
Sequence of receptors (Bioprint panel) (Homo sapiens, UniProt P35372) (P35372 whole entry): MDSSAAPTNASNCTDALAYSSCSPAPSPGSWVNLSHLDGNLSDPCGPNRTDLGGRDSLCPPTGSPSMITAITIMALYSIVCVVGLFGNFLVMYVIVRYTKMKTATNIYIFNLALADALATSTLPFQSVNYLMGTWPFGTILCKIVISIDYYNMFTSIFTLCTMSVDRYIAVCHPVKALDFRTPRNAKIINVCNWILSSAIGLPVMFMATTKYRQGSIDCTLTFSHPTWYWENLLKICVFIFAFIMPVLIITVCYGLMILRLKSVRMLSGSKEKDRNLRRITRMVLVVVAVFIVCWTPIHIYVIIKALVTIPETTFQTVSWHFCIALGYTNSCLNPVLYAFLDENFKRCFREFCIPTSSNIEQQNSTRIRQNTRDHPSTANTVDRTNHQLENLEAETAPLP
Series [4] has as its target receptors (Bioprint panel) (Homo sapiens, UniProt Q15722). Briefly: biochemical. The class given is binding. The settings on record: read-out: % Inhibition of Control Specific Binding.
Series [5] deals with receptors (Bioprint panel) (Homo sapiens, UniProt P29275). Briefly: biochemical. Format: binding. The following applies: ADENOSINE A2B (h) (antagonist radioligand); 10 μM; read-out: % Inhibition of Control Specific Binding.
Sequence of receptors (Bioprint panel) (Homo sapiens, UniProt P29275) (P29275 whole entry): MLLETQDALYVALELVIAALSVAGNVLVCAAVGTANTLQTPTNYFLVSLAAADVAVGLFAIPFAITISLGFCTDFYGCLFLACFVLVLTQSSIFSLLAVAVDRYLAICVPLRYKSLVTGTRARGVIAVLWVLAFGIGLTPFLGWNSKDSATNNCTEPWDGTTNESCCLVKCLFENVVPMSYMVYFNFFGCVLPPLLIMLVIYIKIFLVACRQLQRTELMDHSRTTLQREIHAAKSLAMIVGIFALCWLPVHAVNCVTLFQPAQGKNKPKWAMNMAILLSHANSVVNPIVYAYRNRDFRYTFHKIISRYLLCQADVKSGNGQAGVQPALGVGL
Series [6] addresses receptors (Bioprint panel) (Homo sapiens, UniProt P07550). The experiment in a line: biochemical. The settings on record: […] beta 2 (h) (agonist radioligand); 10 μM; read-out: % Inhibition of Control Specific Binding. The class given is binding.
In series [7] the target is receptors (Bioprint panel) (Homo sapiens, UniProt P02708). The experiment in a line: biochemical. The class given is binding. The following applies: NICOTINIC […] N muscle-type (h) (antagonist radioligand); 10 μM; read-out: % Inhibition of Control Specific Binding.
The target in series [8] is receptors (Bioprint panel) (Homo sapiens, UniProt Q01959). The experiment in a line: biochemical. Format: binding. The settings on record: dopamine transporter (h) (antagonist radioligand); 10 μM; read-out: % Inhibition of Control Specific Binding.
For series [9], the target named is receptors (Bioprint panel) (Homo sapiens, UniProt P25105). Briefly: biochemical. The class given is binding. The settings on record: […] ACTIVATED FACTOR PAF (h) (agonist radioligand); 10 μM; read-out: % Inhibition of Control Specific Binding.
Series [10] concerns the target receptors (Bioprint panel) (Homo sapiens, UniProt Q9H3N8). Briefly: biochemical. The class given is binding. The settings on record: HISTAMINE H4 (h) (agonist radioligand); 10 μM; read-out: % Inhibition of Control Specific Binding.
Series [11] in a line: Keratinocyte cell viability, IL-8 assay (assay number 1244). Format: cell-based, human. The settings on record: human, primary human keratinocytes induced with IL-17A and TNFα; read-out: Inhibition of cell viability, Max Effect.
Series [12] concerns primary human keratinocytes. The description is as above. The class given is cell-based. The following applies: Homo sapiens, Keratinocyte; read-out: Inhibition of cell viability, Rel EC50.
Series [13] has as its target COX1 (h) (Homo sapiens, UniProt P23219). The experiment in a line: Bioprint enzyme assay. The class given is biochemical.
The subject of series [14] is Toll-like receptor 4 (TLR4) activation on human peripheral blood mononuclear cells (PBMC's). Briefly: TLR4 inhibition assay, LPS-induced cytokine release. The class given is cell-based. The settings on record: for IC50: Homo sapiens, PBMC, 24 h, 24-hour LPS stimulation.
In series [15] the target is dopamine D3 (h) (Homo sapiens, UniProt P35462). Briefly: biochemical. Format: binding.
Sequence of dopamine D3 (h) (P35462 whole entry): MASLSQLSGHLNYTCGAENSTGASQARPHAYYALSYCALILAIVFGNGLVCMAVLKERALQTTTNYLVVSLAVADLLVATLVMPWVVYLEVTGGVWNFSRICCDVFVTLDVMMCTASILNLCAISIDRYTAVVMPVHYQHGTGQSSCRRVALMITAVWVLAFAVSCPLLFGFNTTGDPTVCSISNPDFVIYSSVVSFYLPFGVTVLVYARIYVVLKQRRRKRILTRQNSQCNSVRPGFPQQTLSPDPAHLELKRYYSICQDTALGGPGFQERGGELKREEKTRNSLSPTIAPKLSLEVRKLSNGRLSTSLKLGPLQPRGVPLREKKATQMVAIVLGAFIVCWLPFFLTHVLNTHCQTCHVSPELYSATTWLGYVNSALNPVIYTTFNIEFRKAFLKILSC
The subject of series [16] is IL-2 secretion from human CD4-positive T-cells stimulated with antiCD2/antiCD3/antiCD28-coated beads. Briefly: T-cell IL-2 assay. Format: cell-based.
The subject of series [17] is CCL2 release from IL-4, IL-13, IL-22 and IFN-γ-stimulated primary human keratinocytes. Briefly: Keratinocyte CCL2 release (assay number 1280). Format: cell-based.
Series [18] addresses norepinephrine transporter (h) (Homo sapiens, UniProt P23975). The experiment in a line: biochemical. The class given is binding.
Series [19] has as its target PRDM9 (h) (Homo sapiens, UniProt Q9NQV7). The settings on record: read-out: Reference: (IC50 not given); cited from earlier work.
Series [20] deals with T1, SETD7 (h) (Homo sapiens, UniProt Q8WTS6).
T1 sequence (Q8WTS6 1-366): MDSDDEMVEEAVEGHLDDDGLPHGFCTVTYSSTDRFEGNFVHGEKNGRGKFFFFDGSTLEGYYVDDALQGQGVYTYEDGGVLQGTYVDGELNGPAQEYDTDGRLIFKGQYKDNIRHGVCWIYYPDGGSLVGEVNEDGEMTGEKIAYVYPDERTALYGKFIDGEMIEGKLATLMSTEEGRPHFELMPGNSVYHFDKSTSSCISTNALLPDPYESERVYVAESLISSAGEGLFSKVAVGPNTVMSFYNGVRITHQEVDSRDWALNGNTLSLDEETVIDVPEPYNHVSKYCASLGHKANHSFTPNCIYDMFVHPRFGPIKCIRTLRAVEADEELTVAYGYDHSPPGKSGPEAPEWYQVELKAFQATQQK
The following applies: read-out: Reference: (IC50 not given); cited from earlier work.

The target in series [21] is MLL3(h) complex (Homo sapiens, UniProt Q8NEZ4). The settings on record: read-out: Reference: (IC50 not given); cited from earlier work.
The target of series [22] is NSD1 (h) (Homo sapiens, UniProt Q96L73). The settings on record: read-out: Reference: (IC50 not given); cited from earlier work.
Series [23] deals with SUV4-20H2 (h) (Homo sapiens, UniProt Q86Y97). The settings on record: read-out: Reference: (IC50 not given); cited from earlier work.
Sequence of SUV4-20H2 (h) (Q86Y97 whole entry): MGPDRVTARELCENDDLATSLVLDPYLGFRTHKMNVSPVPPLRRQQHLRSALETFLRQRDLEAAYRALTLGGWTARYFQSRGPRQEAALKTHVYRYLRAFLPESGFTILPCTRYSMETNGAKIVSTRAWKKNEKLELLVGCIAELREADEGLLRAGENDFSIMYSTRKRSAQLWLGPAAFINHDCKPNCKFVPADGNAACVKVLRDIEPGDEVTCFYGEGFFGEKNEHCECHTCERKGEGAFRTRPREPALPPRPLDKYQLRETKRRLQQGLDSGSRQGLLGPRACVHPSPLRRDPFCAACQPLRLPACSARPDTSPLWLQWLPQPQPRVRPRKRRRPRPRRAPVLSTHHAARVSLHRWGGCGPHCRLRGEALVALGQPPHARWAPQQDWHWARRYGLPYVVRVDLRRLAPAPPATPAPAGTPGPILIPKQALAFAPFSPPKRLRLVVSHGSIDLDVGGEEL
Setting [24] is: read-out: % inhibition of control specific binding.

Molecules are shown by their SMILES. Like-named read-outs stand apart in the source and are kept apart here.

Usually inhibition stands for how much of the control response was suppressed. What is called EC50 is the concentration needed to bring the measured effect to its halfway point. What is called IC50 is the midpoint of a concentration-inhibition curve.

Sequence of COX1 (h) (P23219 24-599): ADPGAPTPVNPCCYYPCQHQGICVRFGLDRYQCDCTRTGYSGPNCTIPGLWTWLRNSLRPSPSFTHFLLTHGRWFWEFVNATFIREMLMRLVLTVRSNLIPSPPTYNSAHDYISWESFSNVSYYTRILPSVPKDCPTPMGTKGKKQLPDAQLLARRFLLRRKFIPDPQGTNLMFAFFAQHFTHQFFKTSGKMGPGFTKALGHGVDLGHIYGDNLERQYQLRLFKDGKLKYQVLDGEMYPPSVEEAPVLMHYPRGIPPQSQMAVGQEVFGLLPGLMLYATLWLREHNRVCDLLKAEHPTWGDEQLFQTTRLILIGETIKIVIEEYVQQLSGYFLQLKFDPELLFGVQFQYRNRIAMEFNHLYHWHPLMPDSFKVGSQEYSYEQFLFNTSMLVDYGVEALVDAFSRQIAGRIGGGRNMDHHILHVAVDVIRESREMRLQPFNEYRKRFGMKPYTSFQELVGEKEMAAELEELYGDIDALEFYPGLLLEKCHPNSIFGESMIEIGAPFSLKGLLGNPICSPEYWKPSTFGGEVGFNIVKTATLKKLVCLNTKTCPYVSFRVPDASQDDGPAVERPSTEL
Sequence of norepinephrine transporter (h) (P23975 whole entry): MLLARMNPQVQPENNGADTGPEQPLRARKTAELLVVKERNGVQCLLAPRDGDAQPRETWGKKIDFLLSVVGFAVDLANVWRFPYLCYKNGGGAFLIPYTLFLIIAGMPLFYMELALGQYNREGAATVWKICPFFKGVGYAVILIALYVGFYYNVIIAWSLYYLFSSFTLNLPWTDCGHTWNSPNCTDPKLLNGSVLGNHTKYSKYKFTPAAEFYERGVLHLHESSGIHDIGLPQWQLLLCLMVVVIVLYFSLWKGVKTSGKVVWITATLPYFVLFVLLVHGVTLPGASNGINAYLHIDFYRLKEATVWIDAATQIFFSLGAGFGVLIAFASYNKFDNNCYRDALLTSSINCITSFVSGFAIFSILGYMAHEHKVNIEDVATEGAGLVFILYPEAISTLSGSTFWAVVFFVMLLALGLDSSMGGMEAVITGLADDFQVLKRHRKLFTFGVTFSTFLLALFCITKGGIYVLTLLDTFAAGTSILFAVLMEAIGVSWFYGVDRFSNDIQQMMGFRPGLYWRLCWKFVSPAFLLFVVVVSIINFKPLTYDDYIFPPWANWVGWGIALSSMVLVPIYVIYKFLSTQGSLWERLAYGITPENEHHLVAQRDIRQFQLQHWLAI
Sequence of receptors (Bioprint panel) (Homo sapiens, UniProt P10275) (P10275 whole entry T878A, form open): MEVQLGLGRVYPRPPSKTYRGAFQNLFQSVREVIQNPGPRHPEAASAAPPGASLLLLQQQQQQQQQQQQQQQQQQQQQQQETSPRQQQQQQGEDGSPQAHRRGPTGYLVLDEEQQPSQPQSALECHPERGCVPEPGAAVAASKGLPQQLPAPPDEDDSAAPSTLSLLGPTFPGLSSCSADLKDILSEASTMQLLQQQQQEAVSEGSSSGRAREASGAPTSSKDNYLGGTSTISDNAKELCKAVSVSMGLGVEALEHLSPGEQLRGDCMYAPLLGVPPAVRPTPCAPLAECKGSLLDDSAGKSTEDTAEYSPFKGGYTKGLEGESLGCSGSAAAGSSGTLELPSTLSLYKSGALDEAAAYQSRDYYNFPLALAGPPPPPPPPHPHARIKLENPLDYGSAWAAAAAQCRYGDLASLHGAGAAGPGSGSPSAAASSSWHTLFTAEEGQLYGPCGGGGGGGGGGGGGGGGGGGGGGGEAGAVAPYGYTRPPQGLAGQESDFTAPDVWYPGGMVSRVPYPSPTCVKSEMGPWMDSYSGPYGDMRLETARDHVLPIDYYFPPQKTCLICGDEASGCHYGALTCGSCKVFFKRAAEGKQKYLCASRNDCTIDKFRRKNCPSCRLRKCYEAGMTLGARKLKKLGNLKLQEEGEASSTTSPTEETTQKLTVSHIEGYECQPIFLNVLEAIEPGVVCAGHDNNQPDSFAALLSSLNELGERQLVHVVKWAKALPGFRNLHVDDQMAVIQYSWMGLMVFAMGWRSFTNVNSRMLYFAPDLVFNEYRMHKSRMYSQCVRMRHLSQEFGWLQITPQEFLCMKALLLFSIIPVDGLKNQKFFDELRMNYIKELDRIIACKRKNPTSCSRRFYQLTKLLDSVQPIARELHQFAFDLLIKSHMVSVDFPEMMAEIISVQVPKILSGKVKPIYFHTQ
Sequence of PRDM9 (h) (Q9NQV7 whole entry): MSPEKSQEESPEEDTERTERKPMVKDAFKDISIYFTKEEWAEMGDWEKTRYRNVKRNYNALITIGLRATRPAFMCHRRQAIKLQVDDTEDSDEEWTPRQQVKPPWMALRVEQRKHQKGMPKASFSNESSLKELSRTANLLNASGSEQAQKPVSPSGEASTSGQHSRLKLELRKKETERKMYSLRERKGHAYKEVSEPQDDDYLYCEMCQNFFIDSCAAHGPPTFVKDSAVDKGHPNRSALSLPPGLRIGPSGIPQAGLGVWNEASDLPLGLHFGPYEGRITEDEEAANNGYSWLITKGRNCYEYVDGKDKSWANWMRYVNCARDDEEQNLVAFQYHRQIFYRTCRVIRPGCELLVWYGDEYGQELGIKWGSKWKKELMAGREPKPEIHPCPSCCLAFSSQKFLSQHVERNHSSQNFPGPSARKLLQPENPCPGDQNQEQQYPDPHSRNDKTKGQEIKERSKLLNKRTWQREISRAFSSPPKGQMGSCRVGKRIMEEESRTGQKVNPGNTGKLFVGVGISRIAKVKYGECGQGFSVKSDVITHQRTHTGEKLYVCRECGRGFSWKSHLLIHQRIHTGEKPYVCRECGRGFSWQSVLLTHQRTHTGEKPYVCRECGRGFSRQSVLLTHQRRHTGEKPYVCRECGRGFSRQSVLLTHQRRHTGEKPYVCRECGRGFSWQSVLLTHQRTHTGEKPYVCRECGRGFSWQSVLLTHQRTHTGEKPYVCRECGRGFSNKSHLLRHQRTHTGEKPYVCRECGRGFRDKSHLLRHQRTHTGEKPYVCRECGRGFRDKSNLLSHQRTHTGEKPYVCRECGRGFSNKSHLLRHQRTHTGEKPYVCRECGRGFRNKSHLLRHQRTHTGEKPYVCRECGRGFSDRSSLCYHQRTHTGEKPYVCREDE

Regarding `CC(C)=CCC[C@H](CO)[C@@H]1CC[C@@H](C)c2c1cc(C)c(O)c2O` [Compound 1, 7,8,18-trihydroxyserrulat-14-ene], the “% Inhibition of Control Specific Binding” value in series [1] was −9%. Also, the inhibition at 10 µM turned out to be 11% in [2]; 43% in series [3]; 27% in series [4]; 8% in series [5]; 2% in series [6]; 1% in series [7]. The inhibition at 10 µM in [8] turned out to be 63%; in series [9], 39%; in series [10], 23%; in [13] (COX1(h), read-out: % Inhibition of Control Values), 81%; in series [13] (read-out: % inhibition of control enzyme activity), 81%; in series [15] (DOPAMINE D3 (h) (antagonist radioligand), read-out: % Inhibition of Control Specific Binding), 85%. Besides, the inhibition at 10 µM in series [15] (setting [24]) is 85%; in [18] (norepinephrine transporter (h) (antagonist radioligand), read-out: % Inhibition of Control Specific Binding) it was 76%; in series [18] (setting [24]), 76%. Besides, the cytotoxicity in series [11] worked out at 101%. Also, the EC50 is 0.246 µM in series [12]; 0.327 µM in [16] (read-out: Inhibition of IL-2 release, Rel EC50); 0.0922 µM in series [17] (read-out: Inhibition of CCL2 release, Rel EC50). Besides, the 50% inhibitory concentration (IC50) in series [14] (read-out: IC50, LPS-induced IL-1β release) came to 6.6 µM; in [14] (read-out: IC50, LPS-induced IL-6 release) it was 8.8 µM; in series [14] (read-out: IC50, LPS-induced IL-10 release) it was 4.3 µM; in series [14] (read-out: IC50, LPS-induced TNFα release), 8.9 µM; in series [14] (I-1β, human PBMC, read-out: LPS-induced cytokine IC50), 6.6 µM; in [14] (IL-6, human PBMC, read-out: LPS-induced cytokine IC50), 8.8 µM. The IC50 was found to be 4.3 µM in series [14] (IL-10, human PBMC, read-out: LPS-induced cytokine IC50) and 8.9 µM in series [14] (TNF-α, human PBMC, read-out: LPS-induced cytokine IC50). The “inhibition of the secretion of all cytokines” value in series [14] (top test concentration) is reported as “moderate to strong inhibition”. Further, the Emax in [16] (read-out: Inhibition of IL-2 release, Max Effect) is 98%; in series [17] (read-out: Inhibition of CCL2 release, Max Effect), 101%.

For `Nc1ncnc2c1ncn2[C@@H]1O[C@H](CSCC[C@H](N)C(=O)O)[C@@H](O)[C@H]1O` [SAH], the IC50 in series [19] is 370 µM; in [20], 24 µM; in [21], 0.97 µM; in [22], 0.97 µM; in series [23] it was 24 µM.
